# Data published in ChEMBL document CHEMBL1139640, “Water soluble prodrug of a COX-2 selective inhibitor suitable for intravenous administration in models of cerebral ischemia” (Bioorg Med Chem Lett, 2005).
# Tests used:
# [1] = tested on: Rattus norvegicus; test: Plasma concentration of compound 1 in Sprague-Dawley rats upon 2 mg/kg iv dose of prodrug after 30 minutes; assay type: functional, organism-based; design: dose 2 mg/kg
# [2] = tested on: Rattus norvegicus; test: Concentration of compound 16 in brain of Sprague-Dawley rats upon 5 mg/kg bolus+ 3 mg/Kg/h infusion of compound after 24 hours; assay type: functional, organism-based
# [3] = tested on: Rattus norvegicus; test: Concentration of compound 16 in plasma of Sprague-Dawley rats upon 5 mg/kg bolus+ 3 mg/Kg/h infusion of compound after 6 hours; assay type: functional, organism-based
# [4] = tested on: Rattus norvegicus; test: Concentration of compound 16 in brain of Sprague-Dawley rats upon 10 mg/kg bolus+ 5 mg/Kg/h infusion of compound after 24 hours; assay type: functional, organism-based
# [5] = tested on: Rattus norvegicus; test: Concentration of compound 16 in plasma of Sprague-Dawley rats upon 10 mg/kg bolus+ 5 mg/Kg/h infusion of compound after 6 hours; assay type: functional, organism-based
# [6] = tested on: Rattus norvegicus; test: Concentration of compound 16 in plasma of Sprague-Dawley rats upon 5 mg/kg bolus+ 3 mg/Kg/h infusion of compound after 24 hours; assay type: functional, organism-based
# [7] = tested on: Rattus norvegicus; test: Concentration of compound 16 in plasma of Sprague-Dawley rats upon 10 mg/kg bolus+ 5 mg/Kg/h infusion of compound after 24 hours; assay type: functional, organism-based
# [8] = tested on: Rattus norvegicus; test: Ratio of concentration of compound 16 in brain to that of plasma of Sprague-Dawley rats upon 5 mg/kg bolus+ 3 mg/Kg/h infusion of compound after 24 hours; assay type: functional
# [9] = tested on: Rattus norvegicus; test: Ratio of concentration of compound 16 in brain to that of plasma of Sprague-Dawley rats upon 10 mg/kg bolus+ 5 mg/Kg/h infusion of compound after 24 hours; assay type: functional
# [10] = tested on: Rattus norvegicus; test: Concentration of compound 1 in brain of Sprague-Dawley rats upon 10 mg/kg iv dose after 3 hours; assay type: functional, organism-based; design: dose 10 mg/kg
# [11] = tested on: Rattus norvegicus; test: Concentration of compound 1 in plasma of Sprague-Dawley rats upon 10 mg/kg iv dose after 3 hours; assay type: functional, organism-based; design: dose 10 mg/kg
# [12] = biological target: Prostaglandin G/H synthase 1 (Homo sapiens, UniProt P23219); test: Inhibitory concentration against prostaglandin G/H synthase 1 in human whole blood; assay type: tissue-based
# [13] = biological target: T1, Prostaglandin G/H synthase 2 (Homo sapiens, UniProt P35354); test: Inhibitory concentration against prostaglandin G/H synthase 2 in human whole blood
# T1 sequence (P35354 whole entry): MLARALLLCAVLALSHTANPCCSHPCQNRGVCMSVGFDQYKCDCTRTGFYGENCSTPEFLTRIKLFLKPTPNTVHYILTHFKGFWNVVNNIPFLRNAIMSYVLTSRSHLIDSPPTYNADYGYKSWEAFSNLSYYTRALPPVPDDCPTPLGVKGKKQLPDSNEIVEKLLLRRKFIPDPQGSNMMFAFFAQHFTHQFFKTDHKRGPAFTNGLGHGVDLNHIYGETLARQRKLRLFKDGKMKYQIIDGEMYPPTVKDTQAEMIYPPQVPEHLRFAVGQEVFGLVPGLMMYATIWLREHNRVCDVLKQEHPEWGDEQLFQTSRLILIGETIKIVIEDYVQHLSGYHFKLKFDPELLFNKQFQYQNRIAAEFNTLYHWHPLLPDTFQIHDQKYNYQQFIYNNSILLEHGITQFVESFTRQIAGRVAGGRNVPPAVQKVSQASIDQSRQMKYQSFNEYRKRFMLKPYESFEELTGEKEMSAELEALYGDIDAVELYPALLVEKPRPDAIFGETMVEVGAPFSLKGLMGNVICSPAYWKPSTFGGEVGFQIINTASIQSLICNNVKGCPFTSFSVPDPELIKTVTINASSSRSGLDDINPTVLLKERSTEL
# Sequence of Prostaglandin G/H synthase 1 (P23219 whole entry): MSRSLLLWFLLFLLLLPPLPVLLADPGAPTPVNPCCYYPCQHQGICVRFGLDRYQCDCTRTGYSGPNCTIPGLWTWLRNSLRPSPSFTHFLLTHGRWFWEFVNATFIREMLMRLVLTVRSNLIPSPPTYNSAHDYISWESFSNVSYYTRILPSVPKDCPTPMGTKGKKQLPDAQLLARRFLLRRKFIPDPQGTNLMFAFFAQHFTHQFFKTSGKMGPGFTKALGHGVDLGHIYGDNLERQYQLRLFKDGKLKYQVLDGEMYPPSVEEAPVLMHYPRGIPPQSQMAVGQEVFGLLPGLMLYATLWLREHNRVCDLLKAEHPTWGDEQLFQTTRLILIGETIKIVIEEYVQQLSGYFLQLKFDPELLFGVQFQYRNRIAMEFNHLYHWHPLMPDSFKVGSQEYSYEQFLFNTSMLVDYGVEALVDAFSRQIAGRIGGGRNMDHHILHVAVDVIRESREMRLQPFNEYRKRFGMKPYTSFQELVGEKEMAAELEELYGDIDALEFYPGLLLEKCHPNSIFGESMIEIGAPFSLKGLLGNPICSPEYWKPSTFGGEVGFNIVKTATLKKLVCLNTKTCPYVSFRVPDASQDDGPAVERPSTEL
structure (smiles),measurement,setting,value
CCOC(=O)[C@H](N)COC(=O)/C(=C(\COC(C)=O)c1ccc(S(C)(=O)=O)cc1)c1ccc(F)c(F)c1,Concentration,[1],1.4 µM
CC(=O)OC/C(=C(\C(=O)OCC[N+](C)(C)C)c1cccc(F)c1)c1ccc(S(C)(=O)=O)cc1.[Br-],Concentration,[2],5.5 µM
same,Concentration,[3],6 µM
same,Concentration,[4],11 µM
same,Concentration,[5],16 µM
same,Concentration,[6],9.2 µM
same,Concentration,[7],20 µM
same,Ratio,[8],59%
same,Ratio,[9],55%
CC(=O)OC/C(=C(\C(=O)OCC[N+](C)(C)C)c1ccc(F)c(F)c1)c1ccc(S(C)(=O)=O)cc1,Concentration,[10],0.7 µM
same,Concentration,[11],1.4 µM
same,Concentration,[1],0.9 µM
CS(=O)(=O)c1ccc(C2=C(c3cccc(F)c3)C(=O)OC2)cc1,IC50,[12],65 µM
same,IC50,[13],1.3 µM
CCOC(=O)/C(=C(\COC(=O)[C@@H](N)CCCCN)c1ccc(S(C)(=O)=O)cc1)c1ccc(F)c(F)c1,Concentration,[1],0.4 µM
